Reference: US10774121B2, “Methods and compositions for treating neurodegenerative disorders and Alzheimer's Disease and improving normal memory” (The Regents of the University of California, priority 2006, dated 2020)

Key:
Gαo = Gαo (Mus musculus, UniProt P18872); assay: 35S-GTPγS incorporation (G-protein activation) in β-APP-only:PS-1-only co-cultures, immunoprecipitation with Gαo antibody K-20; format: cell-based; conditions: β-APP:PS-1 co-culture, Peptide 1-80 0-3 μM
Text: Two cell types were generated: ES-derived mouse cells (PS-1^−/−; PS-2^−/−) that expressed only small amounts of endogenous β-APP but no PS, were transiently transfected with cDNA for human β-APP to produce cells expressing excess human β-APP over mouse β-APP, and no PS-1 or PS-2 (β-APP-only cells). Embryonic (E18) mouse primary fibroblasts derived from β-APP-null mice, expressing only small amounts of endogenous PS-1 and PS-2, were transfected with cDNAs for human PS-1 to produce cells expressing excess human over mouse PS-1 but no β-APP (PS-1-only cells). […]
Co-cultures of β-APP-only and PS-1-only cells were carried out in the presence and absence of Peptide 1-80 (0-3 μM). ^35S-GTPγS assays were carried out on extracts as a measure of G-protein activation. The Aβ produced in these co-culture extracts was determined by ELISA. […]
^35S-GTPγS Assays: Extract (100 μg of total protein) was mixed with an equal volume of GTPγS Buffer B (50 mM HEPES/NaOH pH 7.4, 40 μM GDP, 50 mM MgCl2, 100 mM NaCl) and reacted with 50 nM ^35S-GTPγS (1250 Ci/mmol, Perkin Elmer, Waltham, Mass.) for 60 min at RT. […] The agarose beads were suspended in scintillation fluid (CytoScint, ICN) (5 ml) and counted in a Beckman Coulter LS 6000 SC scintillation counter for 3 min.

Aβ production = assay: ELISA of Aβ produced in β-APP-only:PS-1-only co-culture extracts; format: cell-based, mouse; conditions: β-APP:PS-1 co-culture, Peptide 1-80 0-3 μM
Experimental: Co-cultures of β-APP-only and PS-1-only cells were carried out in the presence and absence of Peptide 1-80 (0-3 μM). ^35S-GTPγS assays were carried out on extracts as a measure of G-protein activation. The Aβ produced in these co-culture extracts was determined by ELISA.
ES-derived mouse cells (PS-1^−/−; PS-2^−/−) that expressed only small amounts of endogenous β-APP but no PS, were transiently transfected with cDNA for human β-APP to produce cells expressing excess human β-APP over mouse β-APP, and no PS-1 or PS-2 (β-APP-only cells). Embryonic (E18) mouse primary fibroblasts derived from β-APP-null mice, expressing only small amounts of endogenous PS-1 and PS-2, were transfected with cDNAs for human PS-1 to produce cells expressing excess human over mouse PS-1 but no β-APP (PS-1-only cells). The minigenes were co-transfected with PS-1 in the PS-only APP−/− fibroblasts to inhibit the endogenous mouse Gα under investigation in those cells. PS−/− ES cells were separately transfected with human β-APP cDNA (β-APP only cells) and the two types of cells were co-cultured for 24 hours. Cells were harvested and detergent-buffer extracts of the co-cultures were prepared. Determination of [^35S]GTPγS incorporation in these cultures was carried out in the presence and absence of each minigene: Aliquots each containing 100 μg total protein were reacted with ^35S-GTPγS and immunoprecipitation of each ^35S-GTPγS-treated extract was carried out with antibodies directed to the particular Gα under investigation. Specificity of binding of a particular Gα to PS-1 was established by blocking of GTPγS incorporation in the presence of the specific minigene inhibitor.
Co-culture of β-APP-only with PS-1-only cells was carried out as described above.
ELISA for the production of Aβ1-40 was carried out using sandwich ELISA kits (Biosource).

tyrosine kinase activity = assay: Tyrosine kinase ELISA on extracts of β-APP-transfected DAMI cells mixed with PS-1-transfected DAMI cells; format: cell-based, human
Experimental: All experiments after those in FIG. 7 (with the exception of FIG. 9a, Panel 4) were carried out with appropriately transfected DAMI cells only. Equal numbers (0.5×10^6/ml) of β-APP-transfected DAMI cells and either PS-1- or PS-2-transfected DAMI cells were mixed gently at room temperature, exactly as described (Dewji and Singer, 1998). In control experiments, DAMI cells transfected with pcDNA3 alone were substituted for the β-APP transfected cells.
At several times between 0 and 20 min after mixing, an aliquot of each cell mixture was rapidly centrifuged, the culture medium was removed, and the cell pellet was suspended in 200 μl of extraction buffer (50 mM Tris, pH 8.0/150 mM NaCl/0.5% Nonidet-P40) containing protease inhibitors (1 mM 4-(2-aminoethyl) benzene sulfonyl fluoride hydrochloride (AEBSF)/1 μg/ml antipain/0.1 μg/ml pepstatin A/0.1 μg/ml leupeptin) and the phosphatase inhibitor sodium orthovanadate (0.1 mM). The mixture was sonicated with three bursts of 20 sec duration and then centrifuged. These extract supernatants were then used for Western blot and ELISA analyses as described below.
ELISAs Protein tyrosine kinase activity was measured by an Enzyme Linked Immunosorbent Assay (ELISA) using a tyrosine kinase assay kit (Upstate Biotechnology). […]

Sequence of Gαo (P18872 whole entry): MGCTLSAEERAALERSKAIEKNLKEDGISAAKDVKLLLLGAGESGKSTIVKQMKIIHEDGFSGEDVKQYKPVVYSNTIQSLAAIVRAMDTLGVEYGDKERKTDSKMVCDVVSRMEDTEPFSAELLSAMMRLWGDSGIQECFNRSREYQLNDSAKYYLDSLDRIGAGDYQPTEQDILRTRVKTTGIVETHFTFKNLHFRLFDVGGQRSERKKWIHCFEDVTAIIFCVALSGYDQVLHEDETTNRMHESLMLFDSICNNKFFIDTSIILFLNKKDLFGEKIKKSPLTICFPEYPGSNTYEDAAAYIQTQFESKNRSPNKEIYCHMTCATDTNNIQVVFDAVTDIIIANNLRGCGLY

“Peptide 1-80: fusion construct of the water-soluble entire 80 amino acid NH2-terminal domain of PS-1” was tested, and the “G-protein (Gαo) activation, 35S-GTPγS assay” value (Gαo) was “inhibited by Peptide 1-80 in a dose-dependent manner” and the “Aβ production by ELISA” value (Aβ production) was “inhibited by Peptide 1-80 in a dose-dependent manner”.
`CO[C@H]1[C@@H](OC)C[C@H](C)[C@@H](OC)C2=CC(=O)C=C(NC(=O)/C(C)=C/C=C\[C@H](OC)[C@@H](OC(N)=O)/C(C)=C/[C@@H]1C)C2=O` [herbimycin A] was tested, and the “increase in tyrosine kinase activity at 8-10 mins after mixing” value (tyrosine kinase activity; 10 μg/ml herbimycin A) was “completely inhibited”.
For `CC(C)(C)n1nc(-c2ccc(Cl)cc2)c2c(N)ncnc21` [PP2], the “tyrosine kinase activity after mixing” value (tyrosine kinase activity; 10 nM PP2) was “inhibition”.
